This passage reports IC50 and inhibition results from ChEMBL document CHEMBL4627256, “N-(3,5-Dichloro-4-(2,4,6-trichlorophenoxy)phenyl)benzenesulfonamide: A new dual-target inhibitor of mitochondrial complex II and complex III via structural simplification” (Bioorg Med Chem, 2020).

Structures are written as SMILES.

The nature of assay [1]: Inhibition of porcine succinate-ubiquinone oxidoreductase using succinate and 2,6-dichloroindophenol as substrates by spectrophotometric based assay. Details: species or system Sus scrofa.
A short description of assay [2]: Inhibition of porcine succinate-cytochrome c reductase using succinate and cytochrome c as substrates by spectrophotometric based assay. Details: species or system Sus scrofa.
The nature of assay [3]: Inhibition of porcine cytochrome b-c1 complex using DBH2 and cytochrome c as substrates by spectrophotometric based assay. On the set-up: species or system Sus scrofa.
The species entered for assay [4] is Sus scrofa. The experiment in a line: Inhibition of porcine heart succinate-cytochrome c reductase at 10 uM using succinate and cytochrome c as substrates by spectrophotometric based assay relative to control.
For assay [5], the species on record is Sus scrofa. The experiment in a line: Inhibition of porcine cytochrome b-c1 complex at 10 uM using DBH2 and cytochrome c as substrates by spectrophotometric based assay relative to control.
For assay [6], the species on record is Sus scrofa. The experiment in a line: Inhibition of porcine succinate-ubiquinone oxidoreductase at 10 uM using succinate and 2,6-dichloroindophenol as substrates by spectrophotometric based assay relative to control.

A word on the IC50: it is the concentration that inhibits the measured activity by half. With `O=S(=O)(Nc1cc(Cl)c(Oc2c(Cl)cc(Cl)cc2Cl)c(Cl)c1)c1ccccc1`, the IC50 in assay [1] worked out at 510 nM; in assay [2], 80 nM; in assay [3] it was 3060 nM. A word on the inhibition: it is the drop in the measured response relative to a control, in per cent. On to `O=S(=O)(Nc1cc(Cl)c(Oc2ncc(C(F)(F)F)cc2Cl)c(Cl)c1)c1ccccc1`, for which the IC50 in assay [2] was over 10000 nM. The compound also returned an inhibition in the assay filed under Sus scrofa [4] of 9%. In turn, `O=S(=O)(Nc1ccc(Oc2ccc(Cl)cc2Cl)cc1)c1ccc(Cl)cc1Cl` yielded an IC50 in assay [2] of 1620 nM. `Cc1ccc(S(=O)(=O)Nc2cc(Cl)c(Oc3c(Cl)cc(Cl)cc3Cl)c(Cl)c2)cc1`: half-maximal inhibition in assay [2] (IC50) was put at 1660 nM. The same measure, in the same setting: in the case of `O=S(=O)(Nc1cc(Cl)c(Oc2ccc(Cl)cc2Cl)c(Cl)c1)c1c(Cl)cc(Cl)cc1Cl` it was 1120 nM; in that of `O=S(=O)(Nc1cc(Cl)c(Oc2c(Cl)cc(Cl)cc2Cl)c(Cl)c1)c1ccc(C(F)(F)F)cc1Cl`, 1080 nM. Still for that read-out and setting: the figure for `O=[N+]([O-])c1ccc(S(=O)(=O)Nc2cc(Cl)c(Oc3c(Cl)cc(Cl)cc3Cl)c(Cl)c2)cc1` is 1580 nM. Regarding `O=S(=O)(Nc1ccc(Oc2ccc3ccccc3c2)c(Cl)c1)c1ccccc1`, the IC50 in assay [2] was over 10000 nM. The same compound yielded an inhibition in the assay filed under Sus scrofa [4] of 47%.

Compound `O=S(=O)(Nc1ccc(Oc2ccc(Cl)cc2Cl)cc1)c1ccccc1` registered an IC50 in assay [2] of 9280 nM.

`O=S(=O)(Nc1ccc(Oc2ccc(Cl)cc2Cl)c(Cl)c1)c1c(Cl)cc(Cl)cc1Cl` registered an IC50 in assay [2] of 1330 nM. On the same count and under the same terms, the figure for `O=S(=O)(Nc1ccc(Oc2ccc(Cl)cc2Cl)c(Cl)c1)c1ccc(Cl)cc1Cl` is 1300 nM; for `O=S(=O)(Nc1cc(Cl)c(Oc2c(Cl)cc(Cl)cc2Cl)c(Cl)c1)c1ccc(Cl)cc1` it is 630 nM. As for `O=S(=O)(Nc1cc(Cl)c(Oc2c(Cl)cc(Cl)cc2Cl)c(Cl)c1)c1ccc(F)cc1`, in assay [2], the IC50 was found to be 830 nM. The same measure, in the same setting: in the case of `Cc1cccc(S(=O)(=O)Nc2cc(Cl)c(Oc3c(Cl)cc(Cl)cc3Cl)c(Cl)c2)c1` it was 380 nM.

Take `O=S(=O)(Nc1cc(Cl)c(Oc2ccc3ccccc3c2)c(Cl)c1)c1ccccc1`: in assay [2], the IC50 was over 10000 nM. Besides, the inhibition in the assay filed under Sus scrofa [4] was 48%.

In assay [2], `O=S(=O)(Nc1ccc(Oc2ccc(Cl)cc2Cl)cc1)c1c(Cl)cc(Cl)cc1Cl` displayed an IC50 of 1490 nM. For the compound `O=[N+]([O-])c1ccc(S(=O)(=O)Nc2ccc(Oc3ccc(Cl)cc3Cl)cc2)cc1`, half-maximal inhibition in assay [2] (IC50) was put at 4860 nM. In the case of `O=S(=O)(Nc1cc(F)c(Oc2c(F)cc(F)cc2F)c(F)c1)c1ccccc1`, the IC50 in assay [1] was found to be 2020 nM; in assay [2], 6440 nM. In the assay listed under Sus scrofa [5], this compound came in with an inhibition of 40%. In the case of `CO/C=C(/C(=O)OC)c1ccccc1Oc1cc(Oc2ccccc2C#N)ncn1` [AZOXYSTROBIN], the IC50 came to 290 nM in assay [2] and 530 nM in assay [3]. In the assay filed under Sus scrofa [6], this compound gave an inhibition of 23%.

On to `Cc1cc(C)c(Oc2c(C)cc(NS(=O)(=O)c3ccccc3)cc2C)c(C)c1`, for which the IC50 in assay [2] was over 10000 nM. The inhibition in the assay listed under Sus scrofa [4] is 3%. As to `COc1ccc(S(=O)(=O)Nc2cc(Cl)c(Oc3c(Cl)cc(Cl)cc3Cl)c(Cl)c2)cc1`, the IC50 in assay [2] was determined as 1870 nM. On to `CN(C)S(=O)(=O)n1cnc(S(=O)(=O)Nc2cc(Cl)c(Oc3c(Cl)cc(Cl)cc3Cl)c(Cl)c2)n1`, for which the IC50 in assay [1] is 500 nM; in assay [2] it was 3200 nM; in assay [3] it was 35500 nM.

In assay [2], `O=S(=O)(Nc1cc(Cl)c(Oc2ccc(Cl)cc2Cl)c(Cl)c1)c1ccccc1` displayed an IC50 of 1100 nM. The same measure, in the same setting: in the case of `O=S(=O)(Nc1ccc(Oc2ccc(Cl)cc2Cl)cc1)c1ccc(C(F)(F)F)cc1Cl` it was 1370 nM; in that of `O=S(=O)(Nc1cc(Cl)c(Oc2c(Cl)cc(Cl)cc2Cl)c(Cl)c1)c1ccc(Cl)cc1Cl`, 1030 nM; in that of `O=S(=O)(Nc1cc(Cl)c(Oc2c(Cl)cc(Cl)cc2Cl)c(Cl)c1)c1ccc(C(F)(F)F)cc1`, 530 nM. `O=S(=O)(Nc1ccc(Oc2ccccc2)cc1)c1ccccc1` gave an IC50 in assay [2] of over 10000 nM. Further, the inhibition in the assay filed under Sus scrofa [4] worked out at 32%. `O=S(=O)(Nc1cc(Cl)c(Oc2ccc(Cl)cc2Cl)c(Cl)c1)c1ccc(Cl)cc1Cl` registered an IC50 in assay [2] of 1380 nM.

In assay [2], `CC(C)(C)c1ccc(S(=O)(=O)Nc2cc(Cl)c(Oc3c(Cl)cc(Cl)cc3Cl)c(Cl)c2)cc1` showed an IC50 of 990 nM. The compound `O=S(=O)(Nc1cc(Cl)c(Oc2c(Cl)cc(Cl)cc2Cl)c(Cl)c1)c1c(Cl)cc(Cl)cc1Cl` gave an IC50 in assay [2] of 220 nM.

`O=S(=O)(Nc1ccc(Oc2ccc(Cl)cc2Cl)c(Cl)c1)c1ccc(C(F)(F)F)cc1Cl` yielded an IC50 in assay [2] of 1080 nM. Same read-out and setting: the figure for `O=S(=O)(Nc1cc(Cl)c(Oc2ccc(Cl)cc2Cl)c(Cl)c1)c1ccc(C(F)(F)F)cc1Cl` is 1170 nM. Same read-out and setting: the figure for `O=[N+]([O-])c1ccc(S(=O)(=O)Nc2cc(Cl)c(Oc3ccc(Cl)cc3Cl)c(Cl)c2)cc1` is 3570 nM. As to `CC(C)CC(C)c1sccc1NC(=O)c1cn(C)nc1C(F)(F)F` (centres undefined) [PENTHIOPYRAD], the figures for the IC50 in assay [1] and in assay [2] were 1190 nM and 1320 nM, respectively. Moreover, the inhibition in the assay listed under Sus scrofa [5] is under 10%. Consider `O=S(=O)(Nc1ccc(Oc2ccc(Cl)cc2Cl)c(Cl)c1)c1ccccc1`, for which the IC50 in assay [2] was determined as 1980 nM. Same read-out and setting: the figure for `Cc1ccccc1S(=O)(=O)Nc1cc(Cl)c(Oc2c(Cl)cc(Cl)cc2Cl)c(Cl)c1` is 800 nM. `O=S(=O)(Nc1ccc(Oc2c(Cl)cc(Cl)cc2Cl)c(Cl)c1)c1ccccc1`: in assay [2], the IC50 is over 10000 nM. The compound also came in with an inhibition in the assay listed under Sus scrofa [4] of 47%. In assay [2], `O=[N+]([O-])c1ccc(S(=O)(=O)Nc2ccc(Oc3ccc(Cl)cc3Cl)c(Cl)c2)cc1` had an IC50 of 2240 nM.
